From the NIST ThermoML archive (doi:10.1021/acs.jced.5b00796)
Numbers after ± are expanded uncertainties.

Conditions: Liquid, Ebulliometric method (Recirculating still)

SMILES	vapor or sublimation pressure (337.85 K)	vapor or sublimation pressure (354.25 K)
CO [methanol]	101.32 ± 1 kPa	
CC#N [acetonitrile]		101.32 ± 1 kPa
